Results: publication PMC7239035 (Chemistry, an Asian journal, 2019)

Target: β2AR (human β2 adrenergic receptor) (Homo sapiens, UniProt P07550)
Test: radioligand binding
Settings: labelled compound; antagonist; detergent micelles (PPM or DDM, CMC+0.2 wt%); room temperature

β2AR (human β2 adrenergic receptor), sequence (P07550 whole entry): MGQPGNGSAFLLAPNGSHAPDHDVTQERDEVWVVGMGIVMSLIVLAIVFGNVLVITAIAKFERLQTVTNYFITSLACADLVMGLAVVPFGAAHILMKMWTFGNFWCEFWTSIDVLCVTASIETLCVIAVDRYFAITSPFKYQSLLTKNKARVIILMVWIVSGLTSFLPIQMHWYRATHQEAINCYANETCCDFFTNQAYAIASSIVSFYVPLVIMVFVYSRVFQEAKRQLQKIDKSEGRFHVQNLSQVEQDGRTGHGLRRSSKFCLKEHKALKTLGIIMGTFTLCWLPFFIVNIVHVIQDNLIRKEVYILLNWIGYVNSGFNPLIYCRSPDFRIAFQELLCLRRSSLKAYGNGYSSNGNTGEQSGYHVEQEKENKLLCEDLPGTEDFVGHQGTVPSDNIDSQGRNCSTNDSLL

## CCCc1ccccc1OCC(O)CNC(C)C (stereo not shown) [[3H]-dihydroalprenolol]
  radioligand binding: receptor ability to bind the radio-labelled antagonist ([^3H]-dihydroalprenolol (DHA))
